The record followed here is patent publication US20240218022A1, “ANTI-VISTA MACROCYCLIC PEPTIDES AND COMPOSITIONS” (BRISTOL-MYERS SQUIBB COMPANY, priority 2022, published 2024).

This assay concerns the target T1, mouse VISTA (mVISTA) (Mus musculus, UniProt Q9D659).
T1 construct: expressed in transfected cells; host or cells: Human embryonic kidney 293T cells
T1 sequence (Q9D659 33-308): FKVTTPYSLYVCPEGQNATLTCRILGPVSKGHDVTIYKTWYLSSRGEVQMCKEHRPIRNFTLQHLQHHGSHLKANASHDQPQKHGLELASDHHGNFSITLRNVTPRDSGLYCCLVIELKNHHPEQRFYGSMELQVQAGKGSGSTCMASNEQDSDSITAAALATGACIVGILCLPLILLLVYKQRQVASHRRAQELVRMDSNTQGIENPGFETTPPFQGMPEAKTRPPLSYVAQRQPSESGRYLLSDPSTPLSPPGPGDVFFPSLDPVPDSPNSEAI
The assay is described as follows: Cell-Based Binding High-Content Assay For mVISTA (HC CBA mVISTA). The note with it: read-out: HC CBA mVISTA IC50. The procedure, abridged: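 mVISTA-293T, 4,000 cells/well; cpd ± washout step; biotin-peptide 2 nM final, 30 min RT; SA-Alexa 647 30 min; formaldehyde/Hoechst fix; HCS imaging; 4PL IC50.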

Starred links: 1 amine or outer side, 2 acyl side, 3 side chain; linkers in the order of their positions; H or OH if unused. Positions of bridges follow the written chain, without caps; N, C: chain ends. Non-standard residues stand in square brackets, D forms with d. Residues, ends and D or L forms follow the SMILES beside them. ξ: configuration not given here. Phe(4-COOH) = N[C@@H](Cc1ccc(C(=O)O)cc1)C(=O)O; βAsp = O=C(O)[C@H](CC(=O)[*:2])N[*:1]; NMeF = CN[C@@H](Cc1ccccc1)C(=O)O; Ile(3ξ) = CCC(C)[C@H](N)C(=O)O; NMeL = CN[C@@H](CC(C)C)C(=O)O; Ahp(2) = CCCCC[C@H](N)C(=O)O; NMeNle = CCCC[C@H](NC)C(=O)O; Tle = CC(C)(C)[C@H](N)C(=O)O; Pip = O=C(O)[C@@H]1CCCCN1; NHexGly = CCCCCCNCC(=O)O; NMeA = CN[C@@H](C)C(=O)O; Nle = CCCC[C@H](N)C(=O)O; Aun = NCCCCCCCCCCC(=O)O; Aze = O=C(O)[C@@H]1CCN1; AEEA = NCCOCCOCC(=O)O

The term IC50 denotes the concentration needed to halve the response being measured. Turning to `CCCCCCN1CC(=O)N[C@@H](Cc2ccc(O)cc2)C(=O)N[C@@H](CCCC)C(=O)N[C@@H](CC(N)=O)C(=O)N[C@@H](CCCNC(=N)N)C(=O)N(C)[C@@H](CCCC)C(=O)N[C@@H](CCCCC)C(=O)N(C)[C@@H](C)C(=O)N[C@@H](C(C)(C)C)C(=O)N[C@@H](CO)C(=O)N[C@H](C(=O)N[C@@H](CC(=O)NCCOCCOCC(=O)NCCCCCCCCCCC(=O)O)C(=O)O)CSCC(=O)N[C@@H](Cc2ccccc2)C(=O)N[C@@H](Cc2c[nH]c3ccccc23)C(=O)N[C@@H](CC(=O)O)C1=O` [Example 2169] ({CH2CO}-FWD[NHexGly]Y[Nle]NR[NMeNle][Ahp(2)][NMeA][Tle]SC[βAsp][AEEA][Aun]-OH; thioether N-14), the IC50 was found to be 0.0198 µM.

Regarding `CCCCCCN1CC(=O)N[C@@H](Cc2ccc(O)cc2)C(=O)N[C@@H](CCCC)C(=O)N[C@@H](CC(N)=O)C(=O)N[C@@H](CCCNC(=N)N)C(=O)N(C)[C@@H](CCCC)C(=O)N[C@@H](CCCCC)C(=O)N(C)[C@@H](C)C(=O)N[C@@H](C(C)CC)C(=O)N[C@@H](CO)C(=O)N[C@H](C(=O)N[C@@H](CC(=O)NCCOCCOCC(=O)NCCCCCCCCCCC(=O)O)C(=O)O)CSCC(=O)N[C@@H](Cc2ccccc2)C(=O)N[C@@H](Cc2c[nH]c3ccccc23)C(=O)N[C@@H](CC(=O)O)C1=O` (stereo partly shown) [Example 2171] ({CH2CO}-FWD[NHexGly]Y[Nle]NR[NMeNle][Ahp(2)][NMeA][Ile(3ξ)]SC[βAsp][AEEA][Aun]-OH; thioether N-14), the IC50 turned out to be 0.0288 µM.

As to `CCCCCCN1CC(=O)N[C@@H](Cc2ccc(O)cc2)C(=O)N[C@@H](CCCC)C(=O)N[C@@H](CC(N)=O)C(=O)N[C@@H](CCCNC(=N)N)C(=O)N(C)[C@@H](CCCC)C(=O)N[C@@H](CCCCC)C(=O)N(C)[C@@H](C)C(=O)N[C@@H](C(C)C)C(=O)N[C@@H](CO)C(=O)N[C@H](C(=O)N[C@@H](CC(=O)NCCOCCOCC(=O)NCCCCCCCCCCC(=O)O)C(=O)O)CSCC(=O)N[C@@H](Cc2ccccc2)C(=O)N[C@@H](Cc2c[nH]c3ccccc23)C(=O)N[C@@H](CC(=O)O)C1=O` [Example 2172] ({CH2CO}-FWD[NHexGly]Y[Nle]NR[NMeNle][Ahp(2)][NMeA]VSC[βAsp][AEEA][Aun]-OH; thioether N-14), the 50% inhibitory concentration (IC50) was determined as 0.0306 µM.

Take `CCCCCCN1CC(=O)N[C@@H](Cc2ccc(O)cc2)C(=O)N[C@@H](CCCC)C(=O)N[C@@H](CC(N)=O)C(=O)N[C@@H](CCCNC(=N)N)C(=O)N(C)[C@@H](CCCC)C(=O)N[C@@H](CCCCC)C(=O)N(C)[C@@H](CCCC)C(=O)N[C@@H](C(C)(C)C)C(=O)N[C@@H](CO)C(=O)N[C@H](C(=O)N[C@@H](CC(=O)NCCOCCOCC(=O)NCCCCCCCCCCC(=O)O)C(=O)O)CSCC(=O)N[C@@H](Cc2ccccc2)C(=O)N[C@@H](Cc2c[nH]c3ccccc23)C(=O)N[C@@H](CC(=O)O)C1=O` [Example 2173] ({CH2CO}-FWD[NHexGly]Y[Nle]NR[NMeNle][Ahp(2)][NMeNle][Tle]SC[βAsp][AEEA][Aun]-OH; thioether N-14): the IC50 came out at 0.0351 µM.

As to `CCCCCCN1CC(=O)N[C@@H](Cc2ccc(O)cc2)C(=O)N[C@@H](CCCC)C(=O)N[C@@H](CC(N)=O)C(=O)N[C@@H](CCCNC(=N)N)C(=O)N(C)[C@@H](C)C(=O)N[C@@H](CCCCC)C(=O)N2CCC[C@H]2C(=O)N[C@@H](C(C)C)C(=O)N[C@@H](CO)C(=O)N[C@H](C(=O)N[C@@H](CC(=O)NCCOCCOCC(=O)NCCCCCCCCCCC(=O)O)C(=O)O)CSCC(=O)N[C@@H](Cc2ccccc2)C(=O)N[C@@H](Cc2c[nH]c3ccccc23)C(=O)N[C@@H](CC(=O)O)C1=O` [Example 2174] ({CH2CO}-FWD[NHexGly]Y[Nle]NR[NMeA][Ahp(2)]PVSC[βAsp][AEEA][Aun]-OH; thioether N-14), the IC50 was found to be 0.0166 µM.

On to `CCCCCCN1CC(=O)N[C@@H](Cc2ccc(O)cc2)C(=O)N[C@@H](CCCC)C(=O)N[C@@H](CC(N)=O)C(=O)N[C@@H](CCCNC(=N)N)C(=O)N[C@@H](Cc2ccc(C(=O)O)cc2)C(=O)N[C@@H](CCCCC)C(=O)N2CCC[C@H]2C(=O)N[C@@H](C(C)C)C(=O)N[C@@H](CO)C(=O)N[C@H](C(=O)N[C@@H](CC(=O)NCCOCCOCC(=O)NCCCCCCCCCCC(=O)O)C(=O)O)CSCC(=O)N[C@@H](Cc2ccccc2)C(=O)N[C@@H](Cc2c[nH]c3ccccc23)C(=O)N[C@@H](CC(=O)O)C1=O` [Example 2176] ({CH2CO}-FWD[NHexGly]Y[Nle]NR[Phe(4-COOH)][Ahp(2)]PVSC[βAsp][AEEA][Aun]-OH; thioether N-14), for which the IC50 was determined as 0.0198 µM.

For `CCCCCCN1CC(=O)N[C@@H](Cc2ccc(O)cc2)C(=O)N[C@@H](CCCC)C(=O)N[C@@H](CC(N)=O)C(=O)N[C@@H](CCCNC(=N)N)C(=O)N(C)[C@@H](Cc2ccccc2)C(=O)N[C@@H](CCCCC)C(=O)N2CCC[C@H]2C(=O)N[C@@H](C(C)C)C(=O)N[C@@H](CO)C(=O)N[C@H](C(=O)N[C@@H](CC(=O)NCCOCCOCC(=O)NCCCCCCCCCCC(=O)O)C(=O)O)CSCC(=O)N[C@@H](Cc2ccccc2)C(=O)N[C@@H](Cc2c[nH]c3ccccc23)C(=O)N[C@@H](CC(=O)O)C1=O` [Example 2177] ({CH2CO}-FWD[NHexGly]Y[Nle]NR[NMeF][Ahp(2)]PVSC[βAsp][AEEA][Aun]-OH; thioether N-14), the IC50 was determined as 0.0384 µM.

Take `CCCCCCN1CC(=O)N[C@@H](Cc2ccc(O)cc2)C(=O)N[C@@H](CCCC)C(=O)N[C@@H](CC(N)=O)C(=O)N[C@@H](CCCNC(=N)N)C(=O)N(C)[C@@H](CCCC)C(=O)N[C@@H](CCCCC)C(=O)N(C)[C@@H](CC(C)C)C(=O)N[C@@H](C(C)CC)C(=O)N[C@@H](CO)C(=O)N[C@H](C(=O)N[C@@H](CC(=O)NCCOCCOCC(=O)NCCCCCCCCCCC(=O)O)C(=O)O)CSCC(=O)N[C@@H](Cc2ccccc2)C(=O)N[C@@H](Cc2c[nH]c3ccccc23)C(=O)N[C@@H](CC(=O)O)C1=O` (stereo partly shown) [Example 2178] ({CH2CO}-FWD[NHexGly]Y[Nle]NR[NMeNle][Ahp(2)][NMeL][Ile(3ξ)]SC[βAsp][AEEA][Aun]-OH; thioether N-14): the IC50 was determined as 0.0467 µM.

`CCCCCCN1CC(=O)N[C@@H](Cc2ccc(O)cc2)C(=O)N[C@@H](CCCC)C(=O)N[C@@H](CC(N)=O)C(=O)N[C@@H](CCCNC(=N)N)C(=O)N(C)[C@@H](CCCC)C(=O)N[C@@H](CCCCC)C(=O)N(C)[C@@H](CC(C)C)C(=O)N[C@@H](C(C)(C)C)C(=O)N[C@@H](CO)C(=O)N[C@H](C(=O)N[C@@H](CC(=O)NCCOCCOCC(=O)NCCCCCCCCCCC(=O)O)C(=O)O)CSCC(=O)N[C@@H](Cc2ccccc2)C(=O)N[C@@H](Cc2c[nH]c3ccccc23)C(=O)N[C@@H](CC(=O)O)C1=O` [Example 2179] ({CH2CO}-FWD[NHexGly]Y[Nle]NR[NMeNle][Ahp(2)][NMeL][Tle]SC[βAsp][AEEA][Aun]-OH; thioether N-14): the 50% inhibitory concentration (IC50) amounted to 0.0302 µM.

As to `CCCCCCN1CC(=O)N[C@@H](Cc2ccc(O)cc2)C(=O)N[C@@H](CCCC)C(=O)N[C@@H](CC(N)=O)C(=O)N[C@@H](CCCNC(=N)N)C(=O)N(C)[C@@H](CCCC)C(=O)N[C@@H](CCCCC)C(=O)N(C)[C@@H](CC(C)C)C(=O)N[C@@H](C(C)C)C(=O)N[C@@H](CO)C(=O)N[C@H](C(=O)N[C@@H](CC(=O)NCCOCCOCC(=O)NCCCCCCCCCCC(=O)O)C(=O)O)CSCC(=O)N[C@@H](Cc2ccccc2)C(=O)N[C@@H](Cc2c[nH]c3ccccc23)C(=O)N[C@@H](CC(=O)O)C1=O` [Example 2180] ({CH2CO}-FWD[NHexGly]Y[Nle]NR[NMeNle][Ahp(2)][NMeL]VSC[βAsp][AEEA][Aun]-OH; thioether N-14), the IC50 was 0.0185 µM.

Regarding `CCCCCCN1CC(=O)N[C@@H](Cc2ccc(O)cc2)C(=O)N[C@@H](CCCC)C(=O)N[C@@H](CC(N)=O)C(=O)N[C@@H](CCCNC(=N)N)C(=O)N(C)[C@@H](CCCC)C(=O)N[C@@H](CCCCC)C(=O)N2CCCC[C@H]2C(=O)N[C@@H](C(C)CC)C(=O)N[C@@H](CO)C(=O)N[C@H](C(=O)N[C@@H](CC(=O)NCCOCCOCC(=O)NCCCCCCCCCCC(=O)O)C(=O)O)CSCC(=O)N[C@@H](Cc2ccccc2)C(=O)N[C@@H](Cc2c[nH]c3ccccc23)C(=O)N[C@@H](CC(=O)O)C1=O` (stereo partly shown) [Example 2182] ({CH2CO}-FWD[NHexGly]Y[Nle]NR[NMeNle][Ahp(2)][Pip][Ile(3ξ)]SC[βAsp][AEEA][Aun]-OH; thioether N-14), the IC50 was found to be 0.0309 µM.

With `CCCCCCN1CC(=O)N[C@@H](Cc2ccc(O)cc2)C(=O)N[C@@H](CCCC)C(=O)N[C@@H](CC(N)=O)C(=O)N[C@@H](CCCNC(=N)N)C(=O)N(C)[C@@H](CCCC)C(=O)N[C@@H](CCCCC)C(=O)N2CC[C@H]2C(=O)N[C@@H](C(C)CC)C(=O)N[C@@H](CO)C(=O)N[C@H](C(=O)N[C@@H](CC(=O)NCCOCCOCC(=O)NCCCCCCCCCCC(=O)O)C(=O)O)CSCC(=O)N[C@@H](Cc2ccccc2)C(=O)N[C@@H](Cc2c[nH]c3ccccc23)C(=O)N[C@@H](CC(=O)O)C1=O` (stereo partly shown) [Example 2183] ({CH2CO}-FWD[NHexGly]Y[Nle]NR[NMeNle][Ahp(2)][Aze][Ile(3ξ)]SC[βAsp][AEEA][Aun]-OH; thioether N-14), the 50% inhibitory concentration (IC50) was 0.0169 µM.

As to `CCCCCCN1CC(=O)N[C@@H](Cc2ccc(O)cc2)C(=O)N[C@@H](CCCC)C(=O)N[C@@H](CC(N)=O)C(=O)N[C@@H](CCCNC(=N)N)C(=O)N(C)[C@@H](CCCC)C(=O)N[C@@H](CCCCC)C(=O)N2CC[C@H]2C(=O)N[C@@H](C(C)C)C(=O)N[C@@H](CO)C(=O)N[C@H](C(=O)N[C@@H](CC(=O)NCCOCCOCC(=O)NCCCCCCCCCCC(=O)O)C(=O)O)CSCC(=O)N[C@@H](Cc2ccccc2)C(=O)N[C@@H](Cc2c[nH]c3ccccc23)C(=O)N[C@@H](CC(=O)O)C1=O` [Example 2184] ({CH2CO}-FWD[NHexGly]Y[Nle]NR[NMeNle][Ahp(2)][Aze]VSC[βAsp][AEEA][Aun]-OH; thioether N-14), the IC50 was found to be 0.0231 µM.
